Measured values as given in PubChem BioAssay AID1963968 (Molecular Pharmacology Branch, DTP, NCI, 2024).

Test system: 945468-187-T-J3-PDC spheroids with HUVEC/MSC, viability
Test: Anticancer human tumor 945468-187-T-J3-PDC patient-derived rectal carcinoma cell line growth inhibition [PI3K]
Conditions: for IC50: curve of first compound; for viability, T/C: stronger effect = lower value
Description: Combinatorial screen of targeted agents with the PI3K inhibitors inavolisib, alpelisib, duvelisib, and copanlisib in multi-cell type tumor spheroids
A high-throughput screen of multi-cell type tumor spheroids was designed to identify active combinations of targeted small molecules and PI3K pathway inhibitors. Complex spheroids include a stromal component modeled by human endothelial cells (HUVEC) and fibroblasts modeled by human mesenchymal stem cells (MSCs). The concentration ranges selected for each drug and investigational agent were based upon clinically achievable concentrations if the clinical Cmax of the agent was known.
Compounds. The drugs and investigational agents: inavolisib (NSC800729), alpelisib (NSC765974), duvelisib (NSC772469), copanlisib (NSC816437), ipatasertib (NSC767898), afuresertib (NSC778305), talazoparib (NSC767125), sapanisertib (NSC764658), selumetinib (NSC741078), tovorafenib (DAY101, NSC766906), vemurafenib (NSC761431), ravoxertinib (NSC781343), sotorasib (NSC818433), MRTX1133 (NSC 836407), abemaciclib (NSC 768073), palbociclib (NSC758247), venetoclax (NSC 766270), SY5609 (NSC837396), enzalutamide (NSC755605), and darolutamide (NSC825331), were obtained from the National Cancer Institute (NCI) Developmental Therapeutics Program Chemical Repository. The FDA-approved anticancer drug set is available from the NCI Developmental Therapeutics Program. […] The stock solutions were prepared in dimethyl sulfoxide (DMSO, Sigma-Aldrich, St. Louis, MO, cat. D2650) at 800-fold the tested concentration and stored at -70 degrees C prior to their use. All drugs and investigational agents were tested over a range starting from a high concentration at or near the clinical Cmax and decreasing in half-log increments. If the clinical Cmax for an agent had not been determined, the highest concentration tested was 10 microM.
Cell Culture. All cells were maintained in an incubator at 37 degrees C and 5% CO2 with 95% humidity. The PDC lines were cultured according to standard operating procedures established by the NCI PDMR (https://pdmr.cancer.gov/sops/default.htm). All PDCs were thawed and cultured in Matrigel-coated flasks prepared with a working solution of 1X Ham's F-12 nutrient mix, without supplementation (Invitrogen, Waltham, MA, cat. 11765054), 100 U/mL penicillin-streptomycin (Invitrogen, cat. 15140122), and 2.5% Matrigel (Corning Inc., Corning, NY, cat. 354248) for the first three passages. The 354836-022-R-J1-PDC, 475296-252-R-J1-PDC, and 997726-040-R-J2-PDC lines were cultured in 6A media, which includes advanced DMEM/F-12 (Thermo Fisher Scientific, cat. 12634028), 10 mM HEPES (Thermo Fisher Scientific, cat. 15630080), 1X GlutaMAX supplement (Thermo Fisher Scientific, cat. 35050061), 0.1 mg/mL primocin (InvivoGen, San Diego, CA, cat. ant-pm-2), 10% defined fetal bovine serum, heat inactivated (HyClone Laboratories Inc., Logan, UT, cat. SH30070.03HI), 50% L-WRN conditioned media (ATCC, cat. CRL-3276), 1.25 mM N-Acetyl-L-cysteine (Sigma-Aldrich, cat. A9165), 10 mM nicotinamide (Sigma-Aldrich, cat. N0636), 1X B-27 supplement (Thermo Fisher Scientific, cat. 17504044), 1X N-2 supplement (Thermo Fisher Scientific, cat. 17502048), and 10 microM Y-27632 dihydrochloride (Tocris Bioscience, Bristol, United Kingdom, cat. 1254). The 624824-186-R-J2-PDC line was cultured in 6C/Colon 1B media, which includes all 6A media components plus 50 ng/mL human EGF recombinant protein (Thermo Fisher Scientific, cat. PHG0311). […]

[1] = second compound 0.0316 µM, first compound 0.0316 µM
[2] = second compound 0.0316 µM, first compound 0.1 µM
[3] = second compound 0.0316 µM, first compound 0.316 µM
[4] = second compound 0.0316 µM, first compound 1 µM
[5] = second compound 0.0316 µM, first compound 3.16 µM
[6] = second compound 0.0316 µM, first compound 10 µM
[7] = second compound 0.1 µM, first compound 0.0316 µM
[8] = second compound 0.1 µM, first compound 0.1 µM
[9] = second compound 0.1 µM, first compound 0.316 µM
[10] = second compound 0.1 µM, first compound 1 µM
[11] = second compound 0.1 µM, first compound 3.16 µM
[12] = second compound 0.1 µM, first compound 10 µM
[13] = second compound 0.316 µM, first compound 0.0316 µM
[14] = second compound 0.316 µM, first compound 0.1 µM
[15] = second compound 0.316 µM, first compound 0.316 µM
[16] = second compound 0.316 µM, first compound 1 µM
[17] = second compound 0.316 µM, first compound 3.16 µM
[18] = second compound 0.316 µM, first compound 10 µM
[19] = second compound 1 µM, first compound 0.0316 µM
[20] = second compound 1 µM, first compound 0.1 µM
[21] = second compound 1 µM, first compound 0.316 µM
[22] = second compound 1 µM, first compound 1 µM
[23] = second compound 1 µM, first compound 3.16 µM
[24] = second compound 1 µM, first compound 10 µM
[25] = second compound 3.16 µM, first compound 0.0316 µM
[26] = second compound 3.16 µM, first compound 0.1 µM
[27] = second compound 3.16 µM, first compound 0.316 µM
[28] = second compound 3.16 µM, first compound 1 µM
[29] = second compound 3.16 µM, first compound 3.16 µM
[30] = second compound 3.16 µM, first compound 10 µM
[31] = second compound 10 µM, first compound 0.0316 µM
[32] = second compound 10 µM, first compound 0.1 µM
[33] = second compound 10 µM, first compound 0.316 µM
[34] = second compound 10 µM, first compound 1 µM
[35] = second compound 10 µM, first compound 3.16 µM
[36] = second compound 10 µM, first compound 10 µM
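Also: spheroids exposed to agents for 7 days before viability read.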
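For viability, T/C in this document: 100% = DMSO vehicle control viability.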

Compound CCCS(=O)(=O)Nc1ccc(F)c(C(=O)c2c[nH]c3ncc(-c4ccc(Cl)cc4)cc23)c1F + Cc1nc(NC(=O)N2CCCC2C(N)=O)sc1-c1ccnc(C(C)(C)C(F)(F)F)c1 has an IC50 (second compound 0.0316 µM) of 6.38 µM, an IC50 (second compound 0.1 µM) of 7.05 µM and an IC50 (second compound 0.316 µM) of 8.19 µM. The IC50 (second compound 1 µM) was greater than 10 µM, the IC50 (second compound 3.16 µM) was 7.2 µM and the IC50 (second compound 10 µM) was 1.84 µM. It also gave a viability, T/C [1] of 99.8%, a viability, T/C [2] of 109% and a viability, T/C [3] of 87.1%. It also gave a viability, T/C [4] of 103%, a viability, T/C [5] of 107% and a viability, T/C [6] of 17.1%. For the same compound, the viability, T/C [7] was 111%, the viability, T/C [8] was 98% and the viability, T/C [9] was 93.3%. For the same compound, the viability, T/C [10] was 105%, the viability, T/C [11] was 107% and the viability, T/C [12] was 26.9%. It also gave a viability, T/C [13] of 109%, a viability, T/C [14] of 101% and a viability, T/C [15] of 100%. It also gave a viability, T/C [16] of 119%, a viability, T/C [17] of 108% and a viability, T/C [18] of 37.9%. It also gave a viability, T/C [19] of 119%, a viability, T/C [20] of 116% and a viability, T/C [21] of 112%. For the same compound, the viability, T/C [22] was 114%, the viability, T/C [23] was 104% and the viability, T/C [24] was 56.9%. For the same compound, the viability, T/C [25] was 106%, the viability, T/C [26] was 110% and the viability, T/C [27] was 101%. It also gave a viability, T/C [28] of 99.7%, a viability, T/C [29] of 96.3% and a viability, T/C [30] of 31.2%. The viability, T/C [31] was 67.1%, the viability, T/C [32] was 52.8% and the viability, T/C [33] was 53.3%. It also gave a viability, T/C [34] of 64.9%, a viability, T/C [35] of 41.5% and a viability, T/C [36] of 5.18%.
Compound CCCS(=O)(=O)Nc1ccc(F)c(C(=O)c2c[nH]c3ncc(-c4ccc(Cl)cc4)cc23)c1F + CC(Nc1ncnc2nc[nH]c12)c1cc2cccc(Cl)c2c(=O)n1-c1ccccc1 has an IC50 (second compound 0.0316 µM) of 8.2 µM, an IC50 (second compound 0.1 µM) greater than 10 µM and an IC50 (second compound 0.316 µM) greater than 10 µM. It also gave an IC50 (second compound 1 µM) greater than 10 µM, an IC50 (second compound 3.16 µM) greater than 10 µM and an IC50 (second compound 10 µM) greater than 10 µM. It also gave a viability, T/C [1] of 100%, a viability, T/C [2] of 96.7% and a viability, T/C [3] of 103%. It also gave a viability, T/C [4] of 101%, a viability, T/C [5] of 99.2% and a viability, T/C [6] of 39.8%. For the same compound, the viability, T/C [7] was 104%, the viability, T/C [8] was 95.8% and the viability, T/C [9] was 93.8%. The viability, T/C [10] was 91.3%, the viability, T/C [11] was 111% and the viability, T/C [12] was 77.9%. It also gave a viability, T/C [13] of 102%, a viability, T/C [14] of 101% and a viability, T/C [15] of 91.7%. The viability, T/C [16] was 99.3%, the viability, T/C [17] was 98.3% and the viability, T/C [18] was 60.6%. The viability, T/C [19] was 88.6%, the viability, T/C [20] was 92.8% and the viability, T/C [21] was 89.4%. It also gave a viability, T/C [22] of 92%, a viability, T/C [23] of 101% and a viability, T/C [24] of 68.7%. It also gave a viability, T/C [25] of 92.6%, a viability, T/C [26] of 91.3% and a viability, T/C [27] of 102%. For the same compound, the viability, T/C [28] was 105%, the viability, T/C [29] was 105% and the viability, T/C [30] was 56.5%. It also gave a viability, T/C [31] of 91.3%, a viability, T/C [32] of 99.4% and a viability, T/C [33] of 94.8%. It also gave a viability, T/C [34] of 92.2%, a viability, T/C [35] of 105% and a viability, T/C [36] of 94.1%.
